The source of these data is ChEMBL document CHEMBL4043065, “Simplifying nature: Towards the design of broad spectrum kinetoplastid inhibitors, inspired by acetogenins” (Bioorg Med Chem, 2017).

Bounds are passed on as bounds.

A word on the EC50: it is the concentration giving half of the maximal effect.

The subject of assay [1] is Trypanosoma brucei. Put plainly: Trypanocidal activity against Trypanosoma brucei 427 procyclic forms after 64 hrs by Alamar blue assay. The assay is classed as functional. To be noted: Trypanosoma brucei, 427, 64 h. In general terms: Alamar Blue is a resazurin reagent that responds to reducing activity.
Assay [2] has as its system Trypanosoma cruzi. Nature of the assay: Trypanocidal activity against Trypanosoma cruzi strain CL Brener epimastogoes after 64 hrs by Alamar blue assay. The assay is classed as functional.
Assay [3] relates to HeLa. Nature of the assay: Cytotoxicity against human HeLa cells after 64 hrs by Alamar blue assay. The assay is classed as cell-based.
The test system of assay [4] is Leishmania major. Nature of the assay: Antileishmanial activity against Leishmania major MHOM/IL/80/Friedlin promastigotes after 72 hrs by Alamar blue assay. The assay is classed as functional.
Assay [5] relates to Trypanosoma brucei. Put plainly: Trypanocidal activity against Trypanosoma brucei 427 blood stream forms after 64 hrs by Alamar blue assay. The assay is classed as functional. Conditions: Trypanosoma brucei, 427, 64 h.
The subject of assay [6] is Vero. Put plainly: Cytotoxicity against African green monkey Vero cells after 72 hrs by Alamar blue assay. The assay is classed as cell-based. Conditions: Chlorocebus sabaeus.
In assay [7] the test system is Trypanosoma brucei. Put plainly: Trypanocidal activity against Trypanosoma brucei blood stream forms. The assay is classed as functional.
The test system of assay [8] is HeLa. Put plainly: Cytotoxicity against human HeLa cells. The assay is classed as cell-based.

`Cc1nc(C(=O)NCCCCCCOCCCC[C@H]2CCC[C@@H](Cn3cc([C@@H]4CCC[C@H](CCCCOCc5ccccc5)O4)nn3)O2)co1`: the EC50 came to 7.1 µM in assay [1]; 12.1 µM in assay [2]; 19.9 µM in assay [3]; 21.5 µM in assay [4]; 8 µM in assay [5]; 13.6 µM in assay [6].
On to `O=C(NCCCCCCOCCCC[C@H]1CCC[C@@H](Cn2cc([C@@H]3CCC[C@H](CCCCOCc4ccccc4)O3)nn2)O1)c1ccco1`, for which the 50% effective concentration (EC50) in assay [1] was 5 µM; in assay [2], 8 µM; in assay [3] it was greater than 500 µM; in assay [4], 7.8 µM; in assay [5] it was 3.8 µM; in assay [6], greater than 500 µM.
Consider `Cn1nccc1C(=O)NCCCCCCOCCCC[C@H]1CCC[C@@H](Cn2cc([C@@H]3CCC[C@H](CCCCOCc4ccccc4)O3)nn2)O1`, for which the concentration giving a half-maximal response (EC50) in assay [1] was 5.5 µM; in assay [2], 81.8 µM; in assay [3], greater than 100 µM; in assay [4], 28.7 µM; in assay [5], 6.1 µM.
As to `O=C(NCCCCCCOCCCC[C@H]1CCC[C@@H](Cn2cc([C@@H]3CCC[C@H](CCCCOCc4ccccc4)O3)nn2)O1)c1ccc[nH]1`, the EC50 in assay [1] was 4.6 µM; in assay [2], greater than 500 µM; in assay [3], greater than 100 µM; in assay [4], greater than 500 µM; in assay [5], 5 µM.
Turning to `O=C(NCCCCCCOCCCC[C@H]1CCC[C@@H](Cn2cc([C@@H]3CCC[C@H](CCCCOCc4ccccc4)O3)nn2)O1)c1ccccc1`, the EC50 in assay [1] was 4.3 µM; in assay [2], greater than 500 µM; in assay [3] it was greater than 250 µM; in assay [4], greater than 500 µM; in assay [5], 4.4 µM.
For `COCCCCCCNC(=O)c1ccc([N+](=O)[O-])o1`, the EC50 in assay [1] amounted to 0.37 µM; in assay [2], 8 µM; in assay [3], 4.1 µM; in assay [4], 21 µM; in assay [5], 0.73 µM; in assay [6], 15.8 µM.
Regarding `CCCCCC[C@H]1CCC[C@@H](Cn2cc([C@@H]3CCC[C@H](CCCCO)O3)nn2)O1`, the EC50 amounted to 1.8 µM in assay [7] and 7 µM in assay [8].
For `O=C(NCCCCCCOCCCC[C@H]1CCC[C@@H](Cn2cc([C@@H]3CCC[C@H](CCCCOCc4ccccc4)O3)nn2)O1)c1ccsc1`, the EC50 is 5 µM in assay [1]; greater than 500 µM in assay [2]; greater than 500 µM in assay [3]; 15.2 µM in assay [4]; 5.8 µM in assay [5]; greater than 500 µM in assay [6].
Regarding `C[C@H]1C=C(CCCCCCCCCC[C@H]2CCC[C@@H](c3cn(C[C@@H]4CCC[C@H](CCCCOCc5ccccc5)O4)nn3)O2)C(=O)O1`, the EC50 in assay [7] was found to be 5.2 µM; in assay [8], 2.1 µM.
On to `Cc1ccoc1C(=O)NCCCCCCOCCCC[C@H]1CCC[C@@H](Cn2cc([C@@H]3CCC[C@H](CCCCOCc4ccccc4)O3)nn2)O1`, for which the EC50 in assay [1] was 2.5 µM; in assay [2] it was greater than 500 µM; in assay [3], 112 µM; in assay [4], 67.8 µM; in assay [5], 4.7 µM.
As to `O=C(NCCCCCCOCCCC[C@H]1CCC[C@@H](Cn2cc([C@@H]3CCC[C@H](CCCCOCc4ccccc4)O3)nn2)O1)c1ccc(Cl)o1`, the EC50 is 3.8 µM in assay [1]; greater than 500 µM in assay [2]; greater than 500 µM in assay [3]; greater than 500 µM in assay [4]; 4.5 µM in assay [5].
Regarding `Cc1cc(C(=O)NCCCCCCOCCCC[C@H]2CCC[C@@H](Cn3cc([C@@H]4CCC[C@H](CCCCOCc5ccccc5)O4)nn3)O2)oc1C`, the EC50 in assay [1] was 3.9 µM; in assay [2], 135 µM; in assay [3] it was greater than 100 µM; in assay [4], 72.3 µM; in assay [5], 4.6 µM.
For the molecule `Cc1ccc(C(=O)NCCCCCCOCCCC[C@H]2CCC[C@@H](Cn3cc([C@@H]4CCC[C@H](CCCCOCc5ccccc5)O4)nn3)O2)o1`, the EC50 was 3.1 µM in assay [1]; 187 µM in assay [2]; 42.7 µM in assay [3]; 16.1 µM in assay [4]; 4.7 to 4.9 µM in assay [5].
With `O=C(NCCCCCCOCCCC[C@H]1CCC[C@@H](Cn2cc([C@@H]3CCC[C@H](CCCCOCc4ccccc4)O3)nn2)O1)c1cccs1`, the EC50 in assay [1] was 4.8 µM; in assay [2], greater than 500 µM; in assay [3], greater than 500 µM; in assay [4], greater than 500 µM; in assay [5], 5.1 µM.
Regarding `CCCCCC[C@H]1CCC[C@@H](Cn2cc([C@@H]3CCC[C@H](CCCCCCCCCCC4=C[C@H](C)OC4=O)O3)nn2)O1`, the EC50 in assay [7] was greater than 500 µM; in assay [8], greater than 1000 µM.
Consider `COCCCCCCNC(=O)c1ccnn1C`, for which the EC50 in assay [1] was 47.4 µM; in assay [2], greater than 500 µM; in assay [3], greater than 250 µM; in assay [4], greater than 500 µM; in assay [5] it was 107 µM.
`COCCCCCCNC(=O)c1ccco1`: the EC50 in assay [1] was 124 µM; in assay [2] it was greater than 500 µM; in assay [3], greater than 500 µM; in assay [4] it was greater than 500 µM; in assay [5] it was 113 µM.
With `OCCCCCCOCCCC[C@H]1CCC[C@@H](Cn2cc([C@@H]3CCC[C@H](CCCCOCc4ccccc4)O3)nn2)O1`, the EC50 in assay [1] amounted to 3.8 µM; in assay [2] it was 27.3 µM; in assay [3] it was 21.6 µM; in assay [4], 12.4 µM; in assay [5], 3.5 µM.
`c1ccc(COCCCCCCOCCCC[C@H]2CCC[C@@H](Cn3cc([C@@H]4CCC[C@H](CCCCOCc5ccccc5)O4)nn3)O2)cc1`: the EC50 in assay [1] is 29 µM; in assay [2], greater than 500 µM; in assay [3] it was greater than 20 µM; in assay [4], 411 µM; in assay [5] it was 4.3 µM.
For `NCCCCCCOCCCC[C@H]1CCC[C@@H](Cn2cc([C@@H]3CCC[C@H](CCCCOCc4ccccc4)O3)nn2)O1` the same measures were 9.1 µM, 16.7 µM, 8.1 µM, 19.2 µM and 5.8 µM.
`O=C(NCCCCCCOCCCC[C@H]1CCC[C@@H](Cn2cc([C@@H]3CCC[C@H](CCCCOCc4ccccc4)O3)nn2)O1)c1ccoc1`: the EC50 in assay [1] was 5.4 µM; in assay [2], greater than 500 µM; in assay [3] it was greater than 500 µM; in assay [4], 15.2 µM; in assay [5], 3.9 µM; in assay [6], greater than 500 µM.
Consider `Cn1cccc1C(=O)NCCCCCCOCCCC[C@H]1CCC[C@@H](Cn2cc([C@@H]3CCC[C@H](CCCCOCc4ccccc4)O3)nn2)O1`, for which the EC50 in assay [1] is 5 µM; in assay [2] it was greater than 500 µM; in assay [3], 177 µM; in assay [4], 16.3 µM; in assay [5], 4.6 µM.
For the molecule `O=C(NCCCCCCOCCCC[C@H]1CCC[C@@H](Cn2cc([C@@H]3CCC[C@H](CCCCOCc4ccccc4)O3)nn2)O1)c1cocn1`, the EC50 in assay [1] was determined as 9.9 µM; in assay [2], 18.3 µM; in assay [3] it was 21.9 µM; in assay [4], 21.6 µM; in assay [5] it was 8.4 µM; in assay [6] it was 26.6 µM.
`OCCCCCCOCCCC[C@H]1CCC[C@@H](Cn2cc([C@@H]3CCC[C@H](CCCCO)O3)nn2)O1`: the EC50 in assay [1] was 56.3 µM; in assay [2], 230 µM; in assay [3], 6.5 to 69.3 µM; in assay [4] it was 123 µM; in assay [5], 37.7 µM.
In the same order, the values of `O=C(NCCCCCCOCCCC[C@H]1CCC[C@@H](Cn2cc([C@@H]3CCC[C@H](CCCCOCc4ccccc4)O3)nn2)O1)c1cscn1` are 5.8 µM, 12.6 µM, greater than 100 µM, 21.8 µM and 5.7 µM.
For `O=C(NCCCCCCOCCCC[C@H]1CCC[C@@H](Cn2cc([C@@H]3CCC[C@H](CCCCOCc4ccccc4)O3)nn2)O1)c1ccc([N+](=O)[O-])o1`, the EC50 in assay [1] came to 0.1 µM; in assay [2] it was 3.1 µM; in assay [3], 0.38 µM; in assay [4], 11.2 µM; in assay [5], 0.037 µM; in assay [6], 4.5 µM.
